Numbered stars: 1 amine (or outer) side, 2 acyl side, 3 side chain; on linkers, the order of the positions; unused ones are H or OH. Bridge positions count the residues as written; N and C are the ends. Square brackets hold non-standard residues; d marks the D form. Side chains are listed from the residue outwards. Ends that are not written are not given here. * marks the point of attachment. C18 diacid = O=C(O)CCCCCCCCCCCCCCCCC(=O)*; γGlu = O=C(O)[C@H](CCC(=O)[*:2])N[*:1]; αMeF = C[C@](N)(Cc1ccccc1)C(=O)O
How the values were obtained:
DIO Sprague-Dawley rats [1] = assay: Example 6 Study 3: 28-day treatment and 14-day wash-out; type: in vivo, rat
Description: Study 3 Design: Male DIO Sprague-Dawley rats (Charles River Laboratories) were fed a high-fat diet (32.5% kcal fat, D12266B; […] Rats were dosed SC QD for 28 days with Vehicle (n=16), GLP-1RA at 5 nmol/kg (n=16), LAA (“SARA”) at 7.5 nmol/kg (n=16), or GLP1RA+LAA at 5+7.5 nmol/kg respectively (n=16). Following 28 days of treatment half the animals per group stopped treatment and were allowed to wash-out for 14 days (n=8/group), while the remaining animals per group were euthanized with blood/tissues collected. Body weight and food intake were measured daily, and body composition was measured before study start, on day 27 and then again on day 42. Data reported as mean±standard error of the mean (SEM); data analysis performed using GraphPad Prism. In this experiment, the LAA was that of SEQ ID NO: 11, and the GLP-1RA was semaglutide.

[2] = biological target: T1, rat amylin receptor (calcitonin receptor plus RAMP3) (Rattus norvegicus, UniProt P32214+Q9JJ73); assay: Target engagement estimate (unbound Cmax / unbound in vitro potency), amylin receptor; conditions: LAA 30 nmol/kg vs DACRA 10 nmol/kg
T1 construct: expressed in transfected cells; host or cells: HEK293
T1 sequence (P32214 25-516): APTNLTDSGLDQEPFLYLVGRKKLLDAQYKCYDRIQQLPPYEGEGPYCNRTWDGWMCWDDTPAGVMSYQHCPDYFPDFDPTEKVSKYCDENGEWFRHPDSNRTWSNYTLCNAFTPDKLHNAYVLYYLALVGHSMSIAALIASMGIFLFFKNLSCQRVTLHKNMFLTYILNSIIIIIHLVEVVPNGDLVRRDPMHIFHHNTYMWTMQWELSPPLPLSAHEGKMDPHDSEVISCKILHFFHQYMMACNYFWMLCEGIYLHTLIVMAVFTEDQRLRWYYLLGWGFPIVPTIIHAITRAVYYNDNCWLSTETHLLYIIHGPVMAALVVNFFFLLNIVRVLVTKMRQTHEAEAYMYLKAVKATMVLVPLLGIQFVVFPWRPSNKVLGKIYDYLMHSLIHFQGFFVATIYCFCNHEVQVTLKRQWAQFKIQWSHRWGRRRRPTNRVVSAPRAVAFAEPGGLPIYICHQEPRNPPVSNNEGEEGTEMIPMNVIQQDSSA
T1 sequence (Q9JJ73 23-147 partner): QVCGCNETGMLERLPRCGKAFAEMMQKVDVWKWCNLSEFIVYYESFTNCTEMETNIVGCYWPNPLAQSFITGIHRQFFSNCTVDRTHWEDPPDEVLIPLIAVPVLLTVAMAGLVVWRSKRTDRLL
Description: Target engagement was estimated in the following way for each compound. The maximum concentration (Cmax) after subcutaneous injection was measured in separate rat pharmacokinetic studies and was dose-adjusted to the tested dose levels when appropriate, assuming dose linearity. Plasma protein binding was determined in vitro using 3B Pharmaceutical's Escalate Equilibrium Shift Assay or an in-house Surface Plasmon Resonance (SPR) assay. Peptide in vitro potency was determined via HTRF CAMP accumulation assay using HEK293 cells recombinantly expressing the rat calcitonin receptor or rat amylin receptor (calcitonin receptor plus RAMP3) in saline buffer containing 0.1% bovine serum albumin. The in vitro potencies (IC50s) for amylin and calcitonin were adjusted to unbound values by taking into account the albumin concentration in the assay and fraction unbound data, according to an established method (Wan H and Bergström F (2007), High Throughput Screening of Drug-Protein Binding in Drug Discovery, Journal of Liquid Chromatography & Related Technologies, 30:5, 681-700; doi: 10.1080/10826070701190989). Finally, the target engagement was calculated as the unbound Cmax divided by the unbound IC50, both for amylin and calcitonin. […] Uncertainty of parameter estimates was determined by bootstrapping, sampling single measurements randomly with replacement within each experiment (N=500). […]

DIO Sprague-Dawley rats [3] = assay: Example 6 Study 2: 4-week LAA, GLP-1RA or both; type: in vivo, rat; conditions: QD SC 4 weeks; LAA 7.5 nmol/kg, GLP-1RA 5 nmol/kg, or both; FIG. 5H
Description: Study 2 Design: Male DIO Sprague-Dawley rats were injected QD SC with either vehicle, LAA 7.5 nmol/kg, GLP-1RA 5 nmol/kg, or both, for 4 weeks. Monotherapy doses were selected to achieve matching BW loss. BW and food intake were measured daily, and body composition was measured at baseline and end of study.

DIO Sprague-Dawley rats [4] = assay: Example 6: treatment switch / add-on study after GLP-1RA lead-in; type: in vivo, rat; conditions: for body weight change, % of day 0 body weight: day 30
Description: Study Design: Male DIO Sprague-Dawley rats were fed a high-fat diet (32.5% kcal fat, D12266B; Research Diets) for approximately 8 weeks prior to study start. Rats were dosed SC for 15 days with Vehicle (n=16) or GLP-1RA (n=32) (5 nmol/kg) once-daily (QD). Beginning on day 16 rats initially treated with Vehicle either continued with Vehicle (n=8) or were switched to LAA (7.5 nmol/kg, n=8) administration. Rats initially receiving GLP-1RA treatment either continued with GLP-1RA, were switched to LAA (7.5 nmol/kg), were switched to Vehicle, or continued with GLP-1RA with addition of LAA treatment (7.5 nmol/kg) for duration of study (day 30), with n=8/group. Body weight was measured daily through-out study. Data reported as mean±standard error of the mean (SEM); data analysis performed using GraphPad Prism In this experiment, the LAA was that of SEQ ID NO: 11, and the GLP-1R agonist was semaglutide.

DIO rats = assay: Example 7: 28-day LAA and GLP/GIP dual agonist study; type: in vivo, rat
Description: Study Design: Male rats were fed a high-fat diet (45% kcal fat-D12451; Research Diets) or chow control matched diet (10% kcal fat-D12450K; […] Control rats were dosed SC with Vehicle. Body weight was monitored daily through-out study and body composition measured by EchoMRI at baseline (week-1) and end of study (week 4). […]

[5] = end of study, after initial GLP-1RA: GLP-1RA continued, switched to LAA, or Combination

For “K(γE-γE-C18diacid)[CNTATC]ATQRLANFLRHSSNN(αMePhe)GPILPPTEVGSNTY-amide (K([γGlu-γGlu-C18 diacid])CNTATCATQRLANFLRHSSNN[αMeF]GPILPPTEVGSNTY-NH2; disulfide 2-7) [LAA]”, the “inhibition of food intake compared to vehicle” value (DIO Sprague-Dawley rats [1]; SC QD 28 days, LAA 7.5, GLP-1RA 5, or 5+7.5 nmol/kg) was roughly −20%, the “BW loss compared to vehicle” value (DIO Sprague-Dawley rats [1]; SC QD 28 days, LAA 7.5, GLP-1RA 5, or 5+7.5 nmol/kg, FIG. 5I) was −9.3% and the lean mass change (DIO Sprague-Dawley rats [1]; baseline to day 27, FIG. 5K) was “preservation of lean mass”. The “fat mass change from baseline” value (DIO Sprague-Dawley rats [1]; baseline to day 27, LAA 7.5, GLP-1RA 5, or 5+7.5 nmol/kg, FIG. 5J) was -17.7 g, the “amylin receptor engagement, fold more than DACRA” value [2] was roughly 28 fold and the “fat mass change from baseline” value (DIO Sprague-Dawley rats [3]) was “greater loss of fat mass than GLP-1RA monotherapy”. The “total lean mass at the end of the study” value (DIO Sprague-Dawley rats [4]; FIG. 5E) was “trend towards the animals switching to LAA therapy preserving the most lean mass”, the “fasting leptin levels at the end of the study” value (DIO Sprague-Dawley rats [4]; compared to discontinuing therapy at day 15, FIG. 5F) was “significantly reduced” and the “body weight change, % of day 0 body weight” value (DIO Sprague-Dawley rats [4]; switched from GLP-1RA to LAA 7.5 nmol/kg on day 16) was −3.4%. The “body weight change, % of day 0 body weight” value (DIO Sprague-Dawley rats [4]; switched from Vehicle to LAA 7.5 nmol/kg on day 16) was “+1.1%”, the Fat (DIO Sprague-Dawley rats [4]; [5]) was 103.70 g and the “Fat, Δ from Control” value (DIO Sprague-Dawley rats [4]; [5]) was 41.95 g. For the same substance, the “change in body weight normalized to Vehicle” value (DIO Sprague-Dawley rats [4]; end of study, switched from GLP-1RA to LAA) was −12%, the “change in body weight normalized to Vehicle” value (DIO Sprague-Dawley rats [4]; end of study, switched from VH to LAA) was −7.1% and the “Fat, Δ from Vehicle” value (DIO Sprague-Dawley rats [4]; end of study, vs group switched from GLP-1RA to Vehicle) was 27.21 g. For the same substance, the body weight change (DIO rats; day 28, mono-treatment 10 nmol/kg SC QD) was −5.6%, the “change in fat mass (g)” value (DIO rats; end of study (week 4), EchoMRI, FIG. 6C) was “significant decrease in fat mass” and the “change in lean mass (g)” value (DIO rats; end of study, EchoMRI, mono-treatment, FIG. 6D) was “no effect on lean mass”.

From patent US20260091086A1, “POLYPEPTIDE COMBINATIONS AND USES THEREOF” (MEDIMMUNE LIMITED, priority 2024, published 2026)
